From ChEMBL document CHEMBL1201862, “PubChem BioAssay data set” (2004)
Calls of active or inactive are those of the source.

Experiments:
[1] = molecular target: T1, Alkaline phosphatase, tissue-nonspecific isozyme (Homo sapiens, UniProt P05186)
T1 sequence (P05186 whole entry): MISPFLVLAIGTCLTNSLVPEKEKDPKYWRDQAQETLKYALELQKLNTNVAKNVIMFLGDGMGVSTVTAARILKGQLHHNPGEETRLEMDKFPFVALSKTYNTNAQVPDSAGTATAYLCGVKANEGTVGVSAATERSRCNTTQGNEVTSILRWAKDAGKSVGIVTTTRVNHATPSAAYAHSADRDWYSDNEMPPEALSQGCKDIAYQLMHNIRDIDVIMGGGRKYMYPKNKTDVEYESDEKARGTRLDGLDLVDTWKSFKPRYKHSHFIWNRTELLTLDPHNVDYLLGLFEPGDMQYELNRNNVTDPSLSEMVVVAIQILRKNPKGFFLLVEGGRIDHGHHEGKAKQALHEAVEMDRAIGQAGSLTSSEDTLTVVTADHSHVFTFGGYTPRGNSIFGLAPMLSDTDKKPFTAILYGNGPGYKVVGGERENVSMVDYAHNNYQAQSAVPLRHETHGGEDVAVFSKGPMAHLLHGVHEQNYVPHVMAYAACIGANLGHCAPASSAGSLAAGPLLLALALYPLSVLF

Leucine aminopeptidase = molecular target: T2, Leucine aminopeptidase (Plasmodium falciparum 3D7, UniProt Q8IL11); test: P. falciparum M17LAP inhibitors, primary screen, biochemical, fluorogenic H-Leu-NHMec substrate, 1536-well (AID 1619); type: functional
T2 sequence (Q8IL11 whole entry): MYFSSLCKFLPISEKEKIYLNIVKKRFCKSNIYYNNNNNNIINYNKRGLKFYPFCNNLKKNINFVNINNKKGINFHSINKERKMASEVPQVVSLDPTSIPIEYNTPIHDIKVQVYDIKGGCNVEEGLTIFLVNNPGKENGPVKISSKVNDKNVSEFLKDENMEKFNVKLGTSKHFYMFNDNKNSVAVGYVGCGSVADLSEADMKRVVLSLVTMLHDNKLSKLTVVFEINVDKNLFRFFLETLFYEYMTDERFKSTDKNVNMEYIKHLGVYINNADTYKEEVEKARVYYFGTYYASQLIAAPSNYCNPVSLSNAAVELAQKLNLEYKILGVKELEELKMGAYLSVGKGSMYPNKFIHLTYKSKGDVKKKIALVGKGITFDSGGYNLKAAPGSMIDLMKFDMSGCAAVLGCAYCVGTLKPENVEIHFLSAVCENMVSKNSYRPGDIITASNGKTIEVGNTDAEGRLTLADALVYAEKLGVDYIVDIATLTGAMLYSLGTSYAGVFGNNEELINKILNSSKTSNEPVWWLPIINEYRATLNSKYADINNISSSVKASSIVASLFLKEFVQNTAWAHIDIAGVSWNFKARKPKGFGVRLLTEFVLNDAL

Bcl-2-like protein 10 = molecular target: T3, Bcl-2-like protein 10 (Homo sapiens, UniProt Q9HD36); test: Biochemical TR3 FP assay of Bcl-B inhibitor potency, EC50 (AID 1243); type: functional
T3 sequence (Q9HD36 whole entry): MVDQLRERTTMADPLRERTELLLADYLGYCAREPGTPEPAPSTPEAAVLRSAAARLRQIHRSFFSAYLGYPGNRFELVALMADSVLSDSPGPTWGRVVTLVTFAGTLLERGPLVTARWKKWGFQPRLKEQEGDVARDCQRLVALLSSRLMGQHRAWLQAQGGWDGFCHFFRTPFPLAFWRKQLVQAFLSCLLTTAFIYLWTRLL

[2] = Counterscreen for IDE inhibitors: Luminescence-based cell-based high throughput dose response assay to identify compounds that are cytotoxic to HEK cells. [Related pubchem assays: 434962 (Primary screen (IDE inhibitors in singlicate)), 449730 (Counterscreen (Cytotoxicity in triplicate)), 435028 (Confirmation (IDE inhibitors in triplicate)) …; type: functional; conditions: HEK293
Insulin-degrading enzyme = molecular target: T4, Insulin-degrading enzyme (Homo sapiens, UniProt P14735); test: Dose Response: Fluorescence polarization-based cell-based high throughput dose response assay for inhibitors of insulin-degrading enzyme (IDE). [Related pubchem assays: 434962 (Primary screen (IDE inhibitors in singlicate)), 449730 (Counterscreen (Cytotoxicity in triplicate)), 435028 (Confirmation (IDE inhibitors in triplicate)), 434984 (Summary …; type: functional
T4 sequence (P14735 whole entry): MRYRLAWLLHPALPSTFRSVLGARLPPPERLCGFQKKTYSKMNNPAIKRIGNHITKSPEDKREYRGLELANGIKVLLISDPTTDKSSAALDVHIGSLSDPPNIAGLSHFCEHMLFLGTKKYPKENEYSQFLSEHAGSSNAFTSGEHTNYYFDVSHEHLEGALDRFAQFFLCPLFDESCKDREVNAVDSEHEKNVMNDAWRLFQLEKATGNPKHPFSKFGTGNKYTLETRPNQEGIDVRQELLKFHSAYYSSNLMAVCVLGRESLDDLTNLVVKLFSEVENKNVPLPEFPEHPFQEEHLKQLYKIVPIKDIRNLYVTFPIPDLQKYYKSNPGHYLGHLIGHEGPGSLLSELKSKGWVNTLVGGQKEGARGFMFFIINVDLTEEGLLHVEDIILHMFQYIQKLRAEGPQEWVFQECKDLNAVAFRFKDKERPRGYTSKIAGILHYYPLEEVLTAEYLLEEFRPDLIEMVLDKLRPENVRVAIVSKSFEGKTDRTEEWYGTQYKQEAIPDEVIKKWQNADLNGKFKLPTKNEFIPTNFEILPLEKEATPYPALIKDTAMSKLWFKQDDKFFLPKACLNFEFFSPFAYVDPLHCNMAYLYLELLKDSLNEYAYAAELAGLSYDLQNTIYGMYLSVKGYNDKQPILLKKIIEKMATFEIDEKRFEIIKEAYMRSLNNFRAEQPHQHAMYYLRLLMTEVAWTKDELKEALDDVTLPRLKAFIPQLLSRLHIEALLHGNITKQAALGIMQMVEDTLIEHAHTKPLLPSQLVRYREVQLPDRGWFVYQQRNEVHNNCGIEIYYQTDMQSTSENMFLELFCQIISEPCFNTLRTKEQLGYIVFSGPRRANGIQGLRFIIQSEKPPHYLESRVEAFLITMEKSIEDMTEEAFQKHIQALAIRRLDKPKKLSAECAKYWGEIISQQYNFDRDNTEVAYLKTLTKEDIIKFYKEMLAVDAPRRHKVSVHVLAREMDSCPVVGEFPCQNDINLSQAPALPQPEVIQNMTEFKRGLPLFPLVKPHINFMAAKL

[3] = enhancers of respiration in Yfh1-depleted yeast, dose response, Friedreich's ataxia, plus single-dose screen (AID 1465); type: functional;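 also: yeast depleted of Yfh1p frataxin homolog grown on glycerol needing respiration; WST-1 tetrazolium dye reduction as measure of cellular dehydrogenase metabolic activity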
HEK293 = test: cells; conditions: Homo sapiens;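 also: cells exposed to compound for 14 hours overnight before viability readout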
[4] = cytotoxicity in HEK-293T cells, dose response, cytotoxicity control for TCR NF-kB inhibitor project, luminescence, T-cell screen hits (AID 489026); type: functional, cell-based;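 also: cells exposed to compound about 14 hours before the viability readout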
Vero = test: cells; type: functional; conditions: Chlorocebus sabaeus
[5] = Luminescence-based counterscreen assay for KLF5 inhibitors: dose response cell-based high throughput screening assay to identify cytotoxic compounds using the IEC-6 intestinal epithelial cell line. [Related pubchem assays: 1700 (Primary screen.), 1834 (Confirmation screen.), 1858 (Summary AID.), 1905 (Counterscreen.)]; type: functional
[6] = inhibition of ADP-Glo detection reagents, dose response, artefact control for CDK5 inhibitor project, biochemical, luminescence, cherry-picked samples, set 2 (AID 504546); type: functional
Aspartyl aminopeptidase = Aspartyl aminopeptidase (Plasmodium falciparum 3D7, UniProt Q8I2J3)
Sequence of Aspartyl aminopeptidase (Q8I2J3 whole entry): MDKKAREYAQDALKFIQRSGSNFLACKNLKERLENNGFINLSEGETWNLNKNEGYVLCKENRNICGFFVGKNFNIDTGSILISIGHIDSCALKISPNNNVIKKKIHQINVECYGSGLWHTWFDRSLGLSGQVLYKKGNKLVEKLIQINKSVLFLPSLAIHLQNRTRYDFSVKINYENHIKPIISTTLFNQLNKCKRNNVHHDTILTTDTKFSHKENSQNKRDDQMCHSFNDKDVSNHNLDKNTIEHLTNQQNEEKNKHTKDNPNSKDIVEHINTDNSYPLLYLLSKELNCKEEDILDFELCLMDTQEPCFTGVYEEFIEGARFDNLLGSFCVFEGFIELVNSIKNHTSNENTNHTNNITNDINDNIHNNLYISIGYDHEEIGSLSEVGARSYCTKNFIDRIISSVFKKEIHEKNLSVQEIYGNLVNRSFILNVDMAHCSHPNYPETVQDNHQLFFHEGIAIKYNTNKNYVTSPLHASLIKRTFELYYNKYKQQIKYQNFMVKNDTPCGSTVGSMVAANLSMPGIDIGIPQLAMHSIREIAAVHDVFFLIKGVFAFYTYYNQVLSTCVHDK

Procathepsin L = Procathepsin L (Homo sapiens, UniProt P07711)
Sequence of Procathepsin L (P07711 whole entry): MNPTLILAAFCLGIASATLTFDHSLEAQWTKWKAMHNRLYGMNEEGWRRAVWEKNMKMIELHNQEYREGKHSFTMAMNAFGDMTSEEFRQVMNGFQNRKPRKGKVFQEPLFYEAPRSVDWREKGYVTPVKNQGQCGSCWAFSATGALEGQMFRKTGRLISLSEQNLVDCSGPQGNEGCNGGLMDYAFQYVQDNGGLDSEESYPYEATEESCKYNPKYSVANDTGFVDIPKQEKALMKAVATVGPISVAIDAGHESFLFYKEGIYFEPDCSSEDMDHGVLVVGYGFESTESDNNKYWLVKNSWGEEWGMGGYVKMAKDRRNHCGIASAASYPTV

[7] = ADAM10 protease inhibitors, dose response, selectivity assay for ADAM17 exosite inhibitor project, biochemical, FRET peptide substrate, recombinant human ADAM10 (AID 743259);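 also: ADAM10 enzyme cleaving a FRET peptide substrate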
[8] = molecular target: Scavenger receptor class B member 1 (Mus musculus, UniProt Q61009); test: inhibitors of SR-BI mediated HDL lipid uptake, dose response, ldlA[mSR-BI] cells, fluorescence, cherry pick (AID 493194); type: functional, cell-based;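 also: cellular uptake of fluorescent DiI-labeled HDL measured as cell fluorescence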
[9] = molecular target: Disintegrin and metalloproteinase domain-containing protein 17 (Homo sapiens, UniProt P78536); test: exosite inhibitors of ADAM17, dose response, biochemical (AID 743260)
Sequence of Disintegrin and metalloproteinase domain-containing protein 17 (P78536 whole entry, the tested form may be a part): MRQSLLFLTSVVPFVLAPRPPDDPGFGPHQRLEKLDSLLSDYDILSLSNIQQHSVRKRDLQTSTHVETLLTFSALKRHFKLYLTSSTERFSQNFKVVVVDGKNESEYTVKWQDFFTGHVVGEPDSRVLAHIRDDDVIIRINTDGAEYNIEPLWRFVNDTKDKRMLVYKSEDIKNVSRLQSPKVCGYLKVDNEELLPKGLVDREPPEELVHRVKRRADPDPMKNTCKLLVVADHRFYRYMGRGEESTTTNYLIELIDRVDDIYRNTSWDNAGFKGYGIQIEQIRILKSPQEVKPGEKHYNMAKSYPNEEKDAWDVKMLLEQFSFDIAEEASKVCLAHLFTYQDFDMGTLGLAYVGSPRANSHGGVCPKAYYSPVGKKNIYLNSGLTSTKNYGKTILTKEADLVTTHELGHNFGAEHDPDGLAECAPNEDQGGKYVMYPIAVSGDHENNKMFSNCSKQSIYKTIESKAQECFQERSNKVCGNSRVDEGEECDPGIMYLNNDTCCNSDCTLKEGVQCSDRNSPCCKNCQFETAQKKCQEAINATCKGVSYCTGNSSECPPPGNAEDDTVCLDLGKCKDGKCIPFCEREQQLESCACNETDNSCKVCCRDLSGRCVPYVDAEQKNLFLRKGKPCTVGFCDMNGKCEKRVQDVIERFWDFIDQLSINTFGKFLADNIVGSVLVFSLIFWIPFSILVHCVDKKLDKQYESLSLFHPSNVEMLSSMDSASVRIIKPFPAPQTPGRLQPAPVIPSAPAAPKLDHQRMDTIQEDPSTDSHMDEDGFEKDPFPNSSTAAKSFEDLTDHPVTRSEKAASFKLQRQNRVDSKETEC

Beta-galactosidase = Beta-galactosidase (Escherichia coli, UniProt Q8VNN2); type: functional
Sequence of Beta-galactosidase (Q8VNN2 whole entry): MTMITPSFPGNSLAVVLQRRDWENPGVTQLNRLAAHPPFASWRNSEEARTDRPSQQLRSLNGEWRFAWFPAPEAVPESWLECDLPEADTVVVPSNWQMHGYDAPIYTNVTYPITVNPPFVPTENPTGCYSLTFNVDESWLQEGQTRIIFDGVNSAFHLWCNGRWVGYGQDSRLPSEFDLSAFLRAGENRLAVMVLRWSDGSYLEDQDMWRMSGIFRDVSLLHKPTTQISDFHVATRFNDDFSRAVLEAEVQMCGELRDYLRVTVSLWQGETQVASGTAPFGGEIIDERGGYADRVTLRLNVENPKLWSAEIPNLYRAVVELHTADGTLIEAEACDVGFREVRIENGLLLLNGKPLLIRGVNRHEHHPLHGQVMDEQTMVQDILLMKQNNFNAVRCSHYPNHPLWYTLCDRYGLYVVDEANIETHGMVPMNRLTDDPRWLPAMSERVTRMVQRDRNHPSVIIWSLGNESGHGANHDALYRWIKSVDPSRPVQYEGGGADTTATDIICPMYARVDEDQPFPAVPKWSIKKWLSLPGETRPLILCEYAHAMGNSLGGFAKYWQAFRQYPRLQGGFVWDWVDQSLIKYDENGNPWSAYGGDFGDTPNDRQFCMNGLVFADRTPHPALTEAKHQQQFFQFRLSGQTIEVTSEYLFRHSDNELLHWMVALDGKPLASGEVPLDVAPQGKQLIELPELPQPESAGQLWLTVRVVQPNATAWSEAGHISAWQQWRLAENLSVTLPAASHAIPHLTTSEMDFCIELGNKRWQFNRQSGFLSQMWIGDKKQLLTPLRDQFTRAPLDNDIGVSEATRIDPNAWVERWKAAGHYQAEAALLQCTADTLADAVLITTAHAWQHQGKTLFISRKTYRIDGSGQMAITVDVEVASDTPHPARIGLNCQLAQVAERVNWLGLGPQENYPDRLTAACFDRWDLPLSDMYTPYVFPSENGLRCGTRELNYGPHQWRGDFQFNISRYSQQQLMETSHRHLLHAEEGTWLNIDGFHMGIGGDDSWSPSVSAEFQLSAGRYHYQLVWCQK

NS3 = NS3 (Hepatitis C virus, UniProt A3EZJ3); test: PubChem AID 2173; parameters: species or system Hepacivirus hominis
Sequence of NS3 (A3EZJ3 whole entry): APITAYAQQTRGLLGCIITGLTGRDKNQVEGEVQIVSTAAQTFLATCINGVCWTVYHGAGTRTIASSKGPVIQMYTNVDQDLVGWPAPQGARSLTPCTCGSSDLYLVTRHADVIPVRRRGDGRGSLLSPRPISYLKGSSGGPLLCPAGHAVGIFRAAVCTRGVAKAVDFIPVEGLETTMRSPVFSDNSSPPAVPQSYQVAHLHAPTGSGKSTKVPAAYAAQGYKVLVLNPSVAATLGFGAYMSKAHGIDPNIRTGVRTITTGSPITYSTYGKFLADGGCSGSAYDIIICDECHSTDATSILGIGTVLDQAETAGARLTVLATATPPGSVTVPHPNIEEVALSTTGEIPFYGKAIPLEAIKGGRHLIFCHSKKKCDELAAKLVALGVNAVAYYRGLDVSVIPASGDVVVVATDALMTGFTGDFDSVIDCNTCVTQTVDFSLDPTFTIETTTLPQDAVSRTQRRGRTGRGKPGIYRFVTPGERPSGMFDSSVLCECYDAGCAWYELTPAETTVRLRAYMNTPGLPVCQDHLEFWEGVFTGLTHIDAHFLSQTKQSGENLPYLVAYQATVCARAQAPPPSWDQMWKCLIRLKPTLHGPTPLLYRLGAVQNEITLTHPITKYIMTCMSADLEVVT

[10] = molecular target: Eukaryotic translation initiation factor 4H (Homo sapiens, UniProt Q15056); test: human eIF4H binding inhibitors, primary screen, translation initiation inhibitor project, biochemical, uHTS, fluorescence polarization (AID 2012)
[11] = molecular target: Polyadenylate-binding protein 1 (Homo sapiens, UniProt P11940); test: PABP poly(A) RNA binding inhibitors, primary screen, biochemical, fluorescence polarization, uHTS (AID 2014)
[12] = molecular target: T5, Heat shock 70 kDa protein 1A (Homo sapiens, UniProt P0DMV8); test: Hsp70 inhibitors, probe displacement, primary screen, biochemical, fluorescence polarization (AID 583)
T5 sequence (P0DMV8 whole entry): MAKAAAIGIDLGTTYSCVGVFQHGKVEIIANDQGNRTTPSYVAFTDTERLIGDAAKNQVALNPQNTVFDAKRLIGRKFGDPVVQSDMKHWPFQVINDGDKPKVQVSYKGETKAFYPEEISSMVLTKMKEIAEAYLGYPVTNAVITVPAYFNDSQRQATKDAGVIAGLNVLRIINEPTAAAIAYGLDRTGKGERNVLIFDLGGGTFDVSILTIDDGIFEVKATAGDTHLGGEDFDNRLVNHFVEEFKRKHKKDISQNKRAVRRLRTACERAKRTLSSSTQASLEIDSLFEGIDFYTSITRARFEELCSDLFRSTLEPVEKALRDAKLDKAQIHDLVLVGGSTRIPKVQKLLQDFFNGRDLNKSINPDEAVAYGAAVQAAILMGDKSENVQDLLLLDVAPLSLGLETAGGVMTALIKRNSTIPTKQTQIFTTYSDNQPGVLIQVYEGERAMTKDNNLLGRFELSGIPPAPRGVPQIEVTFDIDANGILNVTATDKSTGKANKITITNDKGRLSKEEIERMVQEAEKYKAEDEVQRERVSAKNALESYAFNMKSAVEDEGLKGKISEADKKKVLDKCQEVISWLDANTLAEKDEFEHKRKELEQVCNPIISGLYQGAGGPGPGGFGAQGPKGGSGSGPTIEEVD

[13] = molecular target: T5, Heat shock 70 kDa protein 1A; test: Hsp70 inhibitors, biochemical, TR-FRET (AID 786)
[14] = molecular target: T6, Microphthalmia-associated transcription factor (Homo sapiens, UniProt O75030); test: TRPM1 promoter luciferase signal decrease, dose response, MITF inhibitor project, cell-based, SK-MEL-5, cherry-picked, set 3 (AID 493073); type: functional
T6 sequence (O75030 whole entry): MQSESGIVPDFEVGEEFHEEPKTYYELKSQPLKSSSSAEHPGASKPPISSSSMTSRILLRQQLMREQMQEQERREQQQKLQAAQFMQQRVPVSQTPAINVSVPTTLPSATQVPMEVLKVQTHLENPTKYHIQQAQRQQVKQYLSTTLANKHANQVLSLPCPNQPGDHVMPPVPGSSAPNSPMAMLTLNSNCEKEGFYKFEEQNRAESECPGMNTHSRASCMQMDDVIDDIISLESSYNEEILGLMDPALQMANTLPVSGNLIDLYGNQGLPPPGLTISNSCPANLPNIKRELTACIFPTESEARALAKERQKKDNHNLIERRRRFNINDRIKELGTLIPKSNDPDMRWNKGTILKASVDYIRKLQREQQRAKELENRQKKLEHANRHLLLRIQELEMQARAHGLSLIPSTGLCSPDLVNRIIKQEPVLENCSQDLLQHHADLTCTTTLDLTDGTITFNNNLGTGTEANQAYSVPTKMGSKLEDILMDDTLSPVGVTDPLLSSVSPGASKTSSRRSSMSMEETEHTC

Estrogen receptor = Estrogen receptor (Homo sapiens, UniProt P03372);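 also: potency for inhibiting coactivator peptide recruitment to the receptor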
Sequence of Estrogen receptor (P03372 whole entry): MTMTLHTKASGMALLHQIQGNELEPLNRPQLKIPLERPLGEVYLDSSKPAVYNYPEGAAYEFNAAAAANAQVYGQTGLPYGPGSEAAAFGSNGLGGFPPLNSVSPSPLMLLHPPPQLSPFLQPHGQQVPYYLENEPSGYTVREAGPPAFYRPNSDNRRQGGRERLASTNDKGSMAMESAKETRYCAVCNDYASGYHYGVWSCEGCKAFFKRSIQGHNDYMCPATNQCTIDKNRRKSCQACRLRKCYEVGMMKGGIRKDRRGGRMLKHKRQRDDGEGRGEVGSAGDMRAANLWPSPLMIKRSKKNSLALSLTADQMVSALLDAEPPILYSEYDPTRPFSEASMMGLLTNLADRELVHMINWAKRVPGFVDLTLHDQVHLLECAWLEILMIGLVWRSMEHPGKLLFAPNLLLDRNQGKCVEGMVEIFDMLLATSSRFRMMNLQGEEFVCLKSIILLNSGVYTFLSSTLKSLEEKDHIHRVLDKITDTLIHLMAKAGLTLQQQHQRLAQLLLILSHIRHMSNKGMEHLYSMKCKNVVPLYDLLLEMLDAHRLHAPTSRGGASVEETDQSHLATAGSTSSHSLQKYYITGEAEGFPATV

HeLa = test: Cytotoxicity counterscreen assay for transcriptional activators of heat shock protein 70 (Hsp70). [Related pubchem assays: 1203, 1252 ]; type: functional; conditions: Homo sapiens;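 also: cells exposed to compound for 16 hours before readout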

Structure (SMILES): O=C1/C(=C/c2cccs2)NC(=S)N1C1CC1
- EC50 [1]: > 100 µM (not active)
- IC50 (Leucine aminopeptidase): 6.44 µM (active)

Structure (SMILES): Cc1cc(I)c2c(c1)C1C=CCC1C(C(=O)O)N2 (stereo not given)
- EC50 (Bcl-2-like protein 10): 20.7 µM (active)

Structure (SMILES): Cc1ccccc1N1C(=O)NC(=O)/C(=C/c2ccc(N3CCOCC3)o2)C1=O
- IC50 [2]: > 55.6 µM (not active)
- IC50 (Insulin-degrading enzyme): 30.5 µM (not active)
- EC50 [3]: > 100 µM (active)

Structure (SMILES): Cc1ccc(C(=O)O/N=C(\N)c2ccccn2)c(C)c1
- IC50 (HEK293): > 20 µM (inactive)
- IC50 [4]: > 80 µM (inactive)
- CC50 (Vero): 22.5 µM (active)
- IC50 [5]: 13.1 µM (not active)
- AC50 [6]: 17.7 µM (active)

Structure (SMILES): O=C(Nc1cc(N2CCOCC2)ncn1)NC1(C(F)(F)F)Oc2ccccc2O1
- IC50 (Aspartyl aminopeptidase): 2.7 µM (active)
- IC50 (Procathepsin L): > 59.6 µM (not active)

Structure (SMILES): N=C1/C(=C/c2cccn2CCOc2ccccc2)C(=O)N=C2SC=C(c3ccccc3)N12
- IC50 [7]: > 69.5 µM (inactive)
- AC50 [8]: 16.9 µM (active)
- IC50 [9]: > 69.5 µM (inactive)

Structure (SMILES): C=CCN1CC[C@]23c4c5ccc(O)c4OC2C(=O)CC[C@@]3(O)C1C5 (stereo not given in full)
- EC50 (Beta-galactosidase): > 31.5 µM (inactive)

Structure (SMILES): Nc1c(C(=O)Nc2ccccc2F)sc2nc(-c3ccco3)ccc12
- IC50 (NS3): > 36.3 µM (not active)

Structure (SMILES): Cc1ccc(NC(=O)COC(=O)/C=C/c2ccco2)cc1S(=O)(=O)N(C)C
- IC50 [10]: 21.9 µM (active)
- IC50 [11]: 90.5 µM (active)

Structure (SMILES): CCOC(=O)C1CCN(C(=O)Cc2c(F)cccc2Cl)CC1
- IC50 [12]: > 100 µM (not active)
- IC50 [13]: > 100 µM (not active)

Structure (SMILES): O=C(N/N=C/c1cccc(Oc2ccc([N+](=O)[O-])cc2[N+](=O)[O-])c1)c1cncc(Br)c1
- AC50 [14]: 243 µM (active)
- IC50 (Estrogen receptor): 27.9 µM (active)

Structure (SMILES): CCOC(=O)C1(C/C(C)=N/NC(N)=O)CC(C)OC1=O (stereo not given)
- CC50 (HeLa): > 99 µM (not active)
